Measured values as given in US11261201B2 (priority 2018, dated 2022).
In brackets after ≈: the same amount, converted by molar mass. Structures can show the parent of a compound that is named as a salt. Where two headings read alike, the source gives them in different places.

Tests used:
[1] = system: H37RvMA; assay: Tuberculosis Alamar Blue/Resazurin assay (MIC); assay type: cell-based; conditions: Mycobacterium tuberculosis, H37RV, read-out: WT H37Rv MTB Activity
[2] = system: E. coli; assay: Gram negative MIC protocol (OD600, LB, 24 h); conditions: Escherichia coli
Method: (§1) Overnight bacterial cultures were grown in LB with no added antibiotics at 37° C. with shaking. A 1:1000 dilution of these cultures into LB was exposed to concentration gradients of compounds in 96-well plates (100 μL per well assay volume). Resulting plates were incubated at 37° C. for 24 h without shaking, and OD600 was measured at the end of the incubation. MICs were determined as the lowest concentrations at which OD600 remained at baseline.

[3] = system: A. baumannii; assay: Gram negative MIC protocol (OD600, LB, 24 h); conditions: Acinetobacter baumannii
Method: as §1

[4] = read-out: MIC E. coli delta-TolC LB Media, E. coli delta-TolC, LB media, OD600
[5] = read-out: MIC WT E. coli LB Media, WT E. coli, LB media, OD600
[6] = read-out: MIC A. baumannii LB Media, A. baumannii, LB media, 24 h, OD600
[7] = read-out: MIC A. baumannii LB Media

Row | SMILES | MIC ([1]; WT H37Rv MTB) [µM] | MIC [2, 4] [µM] | MIC [2, 5] [µM] | MIC [3, 6] [µM] | MIC [1] [µM] | MIC [3, 7] [µM]
1 | CC(NCc1ccccc1)C1CCCCC1 (stereo not shown) [B134] | > 150 | > 150 | 120 (≈ 26.1 µg/mL) | > 150 |  | 
2 | c1ccc(CNCC2CCC2)cc1 [B135] | > 150 | > 150 | > 150 | > 150 |  | 
3 | CC(C)CNCc1ccccc1 [B136] | > 150 | > 150 | > 150 | > 150 |  | 
4 | Cc1ccc(CNC2CCCCC2)cc1 [B137] | > 150 | > 150 | > 150 | > 150 |  | 
5 | OC(CNCc1ccccc1)c1ccc2ccccc2c1 (stereo not shown) [B138] | > 150 | > 150 | > 150 | > 150 |  | 
6 | CN1CCC(CNCc2ccccc2)c2ccccc21 (stereo not shown) [B139] | > 150 | > 150 | > 150 | > 150 |  | 
7 | c1ccc(CNCCN2CCc3sccc3C2)cc1 [B140] | > 150 | > 150 | > 150 | > 150 |  | 
8 | c1ccc(CNCC2CCCC2)cc1 [B141] | > 150 | > 150 | > 150 | > 150 |  | 
9 | CC1CCC(NCc2ccccc2)CC1 (stereo not shown) [B142] | > 150 | > 150 | > 150 | > 150 |  | 
10 | COc1cccc(CNCCC2=CCCCC2)c1 [B143] | > 150 | > 150 | > 150 | > 150 |  | 
11 | Fc1ccc(CNCCC2=CCCCC2)cc1F [B144] | > 150 | > 150 | > 150 | > 150 |  | 
12 | CC1CCc2ccccc2N1CCNCc1ccccc1 (stereo not shown) [B145] | 91 (≈ 25.5 µg/mL) | > 150 | > 150 | > 150 |  | 
13 | c1ccc(CNCCC2CC3CCC2C3)cc1 (stereo not shown) [B146] | > 150 | 90 (≈ 20.6 µg/mL) | 150 (≈ 34.4 µg/mL) | 150 (≈ 34.4 µg/mL) |  | 
14 | COc1cc2c(cc1OC)CN(CCNCc1ccccc1)CC2 [B147] | > 150 | > 150 | > 150 | > 150 |  | 
15 | c1ccc(CNCCN2CCCc3ccccc32)cc1 [B148] | 150 (≈ 40 µg/mL) | > 150 | > 150 | > 150 |  | 
16 | CC(NCc1ccccc1)C1(C)CC1 (stereo not shown) [B149] | > 150 | > 150 | > 150 | > 150 |  | 
17 | CCCCCCCCNCc1ccccc1 [B150] | > 150 | > 150 | > 150 | > 150 |  | 
18 | C1=C(CCNCCc2ccccc2)CCCC1 [B151] |  | > 150 | > 150 | > 150 | > 150 | 
19 | C1=C(CCNCc2cccs2)CCCC1 [B152] | > 150 | > 150 | > 150 | > 150 |  | 
20 | c1ccc(CNCCc2ccc3c(c2)OCO3)cc1 [B154] |  | > 150 | > 150 |  | > 150 | > 150
21 | c1ccc(CNCCc2ccc3ccccc3n2)cc1 [B155] | > 150 | > 150 | > 150 | > 150 |  | 
22 | C1=CCC(CCNCc2ccccc2)CC1 (stereo not shown) [B156, N-benzyl-2-(cyclohex-3-enyl)ethanamine hydrochloride] |  | 150 | 150 |  | > 150 | 150
23 | CC(CC1CC=CCC1)NCc1ccccc1 (stereo not shown) [B157, N-benzyl-1-(cyclohex-3-enyl)propan-2-amine] |  | 11 (≈ 2.52 µg/mL) | 20 (≈ 4.59 µg/mL) |  | 91 (≈ 20.9 µg/mL) | 55 (≈ 12.6 µg/mL)
24 | OB1OCc2ccc(CNCc3ccccc3)cc21 [B158, 6-((benzylamino)methyl)benzo[c][1,2]oxaborol-1(3H)-ol] | > 150 | > 150 | > 150 | > 150 |  | 
25 | C1=CC(CCNCc2ccccc2)CCC1 (stereo not shown) [B160] |  | > 150 | > 150 |  | > 150 | > 150
